This note sets out measurements from patent EP4613738A1, “LIPID HAVING AMIDE AND ESTER FUNCTIONAL GROUPS, AND METHOD FOR PRODUCING SAME” (Samyang Holdings Corporation, priority 2022, dated 2024).

The nature of series [1]: Particle characteristics of the prepared formulation by particle size analyzer (Dynamic Light Scattering, DLS). Format: physicochemical. The conditions noted are these: mRNA formulation; lipid compound:DMG-PEG:DSPC:Cholesterol=50:1.5:10:38.5; N/P ratio 10; buffer exchanged to PBS. The protocol:
(§1) The required amounts of the raw materials were mixed in order to meet the N/P ratio (amine group of lipid/phosphate group of mRNA) of 10 and each compound of formulas A to V:DMG-PEG:DSPC:Cholesterol=50:1.5:10:38.5. Ethanol was added to the ethanol layer so that the molecular total of all raw materials was within 12.5 mM, and the aqueous phase and ethanol phase were mixed maintaining a volume ratio of 3:1. After the mixing, to reduce the total ethanol content, buffer exchange was performed as follows: The mixture solution was concentrated by centrifugation at 4,000 rpm to 1/3 using an Amicon-Ultra tube filter (Merk Millipore, UFC505096 or UFC805024, pore size: 50K, volume: 0.5 mL or 4 mL), then diluted with three times the volume of PBS and centrifuged to concentrate. This process was repeated six times to exchange the buffer.
(§2) The more concrete procedure is as follows: • 1) Two autoclaved tubes were prepared (tubes (A) and (B)). • 2) In tube (A), each compound of formulas A to V, DSPC, cholesterol and DMG-PEG in molar quantities calculated according to the experimental conditions were sequentially added and mixed by vortexing. • 3) In the ethanol phase, when necessary, ethanol was added so that the molecular total of all raw materials was within 12.5 mM. • 4) In tube (B), mRNA and 20 mM sodium acetate buffer (pH 4.6) (=prepared by diluting with 3M sodium acetate buffer to 20 mM and titrating to pH 4.6 using 1M HCl) were mixed. At that time, the ratio was calculated and added so that the aqueous phase was total three times the amount of the ethanol phase. • 5) Mixing of Tube (A) and Tube (B) was performed using a Microfluidics (Ignite, Precision Nanosystem) device. Microfluidics operating conditions were FRR (Flow Rate Ratio) of C:R=3:1 and TRR (Total Flow Rate) of 12 mL/min. • 6) The resulting mixture from step 5) was concentrated by centrifugation at 4,000 rpm to 1/3 using an Amicon-Ultra tube filter (50K), then diluted 3-fold with PBS and concentrated by centrifugation. This process was repeated 6 times for concentration to the desired volume.
(§3) • 1) For the prepared formulation, particle characteristics (i.e., Zeta-average particle size (Z-average), polydispersity index (PDI), and zeta-potential) were confirmed using a particle size analyzer (Dynamic Light Scattering, DLS), and the results are shown in Table 1 below. • 2) For the prepared formulation, mRNA encapsulation efficiency was confirmed through Ribo-green assay, and the results are shown in Table 1 below.

In another series the test system is mRNA. The series is described as follows: mRNA encapsulation efficiency of the prepared formulation by Ribo-green assay. It is filed as physicochemical. The conditions noted are these: lipid compound:DMG-PEG:DSPC:Cholesterol=50:1.5:10:38.5, N/P ratio 10, buffer exchanged to PBS. The protocol:
as §1, §2, §3

Consider `CCCCCCCCCCC(CCCCCCCC)COC(=O)CCCCCNC(=O)CCN(CCN)CCC(=O)NCCCCCC(=O)OCC(CCCCCCCC)CCCCCCCCCC` (centres unmarked) [Example 14], for which, in series [1], the “PDI (PI)” value is 0.166 ± 0.027, the Z-average was found to be 113.8 ± 0.502 nm and the Zeta-potential was -10.39 ± 1.994 mV. In addition, the Encapsulation efficiency with mRNA is on record as > 93.75%.
Consider `CCCCCCCCC(CCCCCC)COC(=O)CCCCCNC(=O)CCN(C)CCCN(C)CCC(=O)NCCCCCC(=O)OCC(CCCCCC)CCCCCCCC` (centres unmarked) [Example 10], for which, in series [1], the “PDI (PI)” value was determined as 0.171 ± 0.006, the Z-average turned out to be 118.2 ± 1.473 nm and the Zeta-potential came to 6.72 ± 0.073 mV. The Encapsulation efficiency in the series on mRNA is recorded as > 94.1%.
As to `CCCCCCCCCOC(=O)CCCCCNC(=O)CCN(CCCN(C)C)CCC(=O)NCCCCCC(=O)OCCCCCCCCC` [Example 17], in series [1], the “PDI (PI)” value was found to be 0.167 ± 0.009, the Z-average was determined as 127.3 ± 0.955 nm and the Zeta-potential was found to be 17.22 ± 3.314 mV. In the series on mRNA, the Encapsulation efficiency is > 93.75%.
For `CCCCCCC(CCCCCC)COC(=O)CCCCCNC(=O)CCN(C)CCCN(C)CCC(=O)NCCCCCC(=O)OCC(CCCCCC)CCCCCC` [Example 5], in that order: 0.156 ± 0.009, 137.5 ± 1.364 nm, -6.66 ± 0.365 mV and > 96.9%.
On to `CCCCCCC(CCCCCC)COC(=O)CCCCCCCNC(=O)CCN(CCN)CCC(=O)NCCCCCCCC(=O)OCC(CCCCCC)CCCCCC` [Example 15], for which, in series [1], the “PDI (PI)” value is reported as 0.186 ± 0.015, the Z-average was 127.0 ± 0.325 nm and the Zeta-potential is listed as -0.40 ± 0.239 mV. Moreover, the Encapsulation efficiency in the series with mRNA is recorded as > 93.75%.
Turning to `CCCCCCCCC(CCCCCC)COC(=O)CCCCCNC(=O)CCN(CCC(=O)NCCCCCC(=O)OCC(CCCCCC)CCCCCCCC)CCN1CCOCC1` (centres unmarked) [Example 19], in series [1], the “PDI (PI)” value turned out to be 0.150 ± 0.022, the Z-average turned out to be 146.7 ± 1.226 nm and the Zeta-potential is -9.39 ± 0.137 mV. In addition, in the series on mRNA, the Encapsulation efficiency was > 93.75%.
In the same order, the values of `CCCCC/C=C\C/C=C\CCCCCCCCOC(=O)CCCCCNC(=O)CCN(C)CCCN(C)CCC(=O)NCCCCCC(=O)OCCCCCCCC/C=C\C/C=C\CCCCC` [Example 21] are 0.350 ± 0.009, 120.0 ± 4.251 nm, 4.43 ± 0.746 mV and > 93.50%.
For `CCCCCCCCCCC(CCCCCCCC)COC(=O)CCCCCNC(=O)CCN(C)CCCN(C)CCC(=O)NCCCCCC(=O)OCC(CCCCCCCC)CCCCCCCCCC` (centres unmarked) [Example 7], in that order: 0.215 ± 0.018, 118.6 ± 2.099 nm, 2.04 ± 0.365 mV and > 93.75%.
For `CCCCCCCCCCCCC(CCCCCCCCCC)COC(=O)CCCCCNC(=O)CCN(CCN)CCC(=O)NCCCCCC(=O)OCC(CCCCCCCCCC)CCCCCCCCCCCC` (centres unmarked) [Example 16], in that order: 0.128 ± 0.015, 128.9 ± 4.714 nm, 0.50 ± 3.461 mV and > 93.75%.
As for `CCCCCCC(CCCC)COC(=O)CCCCCNC(=O)CCN(C)CCCN(C)CCC(=O)NCCCCCC(=O)OCC(CCCC)CCCCCC` (centres unmarked) [Example 4], in series [1], the “PDI (PI)” value is 0.231 ± 0.012, the Z-average amounted to 147.8 ± 0.979 nm and the Zeta-potential is on record as -7.87 ± 0.754 mV. Further, in the series with mRNA, the Encapsulation efficiency was > 93.75%.
In the same order, the values of `CCCCCCCCC(OC(=O)CCCCCNC(=O)CCN(C)CCCN(C)CCC(=O)NCCCCCC(=O)OC(CCCCCCCC)C1CC1)C1CC1` (centres unmarked) [Example 22] are 0.3042 ± 0.026, 121.0 ± 4.06 nm, 3.56 ± 3.67 mV and > 93.20%.
For `CCCCOC(=O)CCCCCNC(=O)CCN(C)CCCN(C)CCC(=O)NCCCCCC(=O)OCCCC` [Example 6], in series [1], the “PDI (PI)” value is on record as 0.190 ± 0.011, the Z-average amounted to 125.9 ± 1.325 nm and the Zeta-potential is given as -6.02 ± 2.949 mV. In addition, in the series on mRNA, the Encapsulation efficiency is > 87.5%.
In the same order, the values of `CCCCCCC(CCCCCC)COC(=O)CCCCCCCNC(=O)CCN(C)CCCN(C)CCC(=O)NCCCCCCCC(=O)OCC(CCCCCC)CCCCCC` [Example 8] are 0.188 ± 0.007, 110.3 ± 1.700 nm, 4.83 ± 0.301 mV and > 99.2%.
In the same order, the values of `CCCCCCCCC(CCCCCC)COC(=O)CCCCCNC(=O)CCN(CCCN(C)C)CCC(=O)NCCCCCC(=O)OCC(CCCCCC)CCCCCCCC` (centres unmarked) [Example 18] are 0.199 ± 0.007, 118.6 ± 0.565 nm, 10.96 ± 1.293 mV and > 93.75%.
